Assay results taken from patent US3965180A, “4'-Fluoro-4-{[4-(phenyl)-4-alkoxy-cyclo-hexyl]amino}butyrophenones and the salts thereof” (The Upjohn Company, priority 1973, dated 1976).
Where a name gives a salt, the structure may show the parent alone.

Columns and labels:
Format in all cases: in vivo
mice [1] = experiment: Chimney test (ability of mice to back up and out of a vertical glass cylinder within 30 seconds); conditions: Mus musculus, ip, intraperitoneal injection, dose at which 50% of the mice failed to back out within 30 seconds, read-out: ED50, Ch = chimney test
From the text: (§1) The free bases and acid addition salts of the novel compounds of Formula I are useful as central nervous system (CNS) depressants when administered to humans and animals.
(§2) Tranquilizing effects of certain compounds of this invention are shown by the following tests in mice:
Chimney test: [Med. Exp. 4, 145 (1961)]: The test determines the ability of mice to back up and out of a vertical glass cylinder within 30 seconds. At the effective dosage, 50% of the mice failed doing it.

mice [2] = experiment: Dish test (mice remaining in Petri dish for more than 3 minutes); conditions: Mus musculus, ip, 0.05 h, intraperitoneal injection, dose at which 50% of the mice remain in the dish more than 3 minutes, read-out: ED50, D = dish test
Procedure: as §1, §2
Dish test: Mice in Petri dishes (10 cm. diameter, 5 cm. high, partially embedded in wood shavings), climb out in a very short time, when not treated. Mice remaining in the dish for more than 3 minutes indicates tranquilization. ED50 equals the dose of test compound at which 50% of the mice remain in the dish.

mice [3] = experiment: Pedestal test (mice staying on the pedestal for more than 1 minute); conditions: Mus musculus, ip, 1 min, intraperitoneal injection, stay on pedestal for more than 1 minute, read-out: ED50, P = pedestal test
Procedure: as §1, §2
Pedestal test: The untreated mouse leaves a standard pedestal in less than a minute to climb back to the floor of the standard mouse box. Tranquilized mice will stay on the pedestal for more than 1 minute.

mice [4] = experiment: Nicotine antagonism test (nicotine salicylate 2 mg./kg.; (3) death); conditions: Mus musculus, ip, intraperitoneal injection 30 minutes before nicotine salicylate (2 mg./kg.), read-out: ED50, Ni = nicotine antagonism (3) test
Procedure: as §2
Nicotine antagonism test: Mice in a group of 6 are injected with the test compound. Thirty minutes later the mice including control (untreated) mice are injected with nicotine salicylate (2 mg./kg.). The control mice show overstimulation, i.e., (1) running convulsions followed by (2) tonic extensor fits; followed by (3) death.

Row | Structure (SMILES) | ED50 (mice [1]) [mg/kg] | ED50 (mice [2]) [mg/kg] | ED50 (mice [3]) [mg/kg] | ED50 (mice [4]) [mg/kg]
1 | CO[C@]1(c2ccc(F)cc2)CC[C@H](NCCCC(=O)c2ccc(F)cc2)CC1 [4'-fluoro-4-{[4-trans-(p-fluorophenyl)-4-cis-methoxycyclohexyl]amino}butyrophenone hydrochloride (I)] | 2.5 | 0.09 | 1.3 | 0.4
2 | CO[C@]1(c2ccc(F)cc2)CC[C@@H](NCCCC(=O)c2ccc(F)cc2)CC1 [4'-fluoro-4-{[4-cis-(p-fluorophenyl)-4-transmethoxycyclohexyl]amino}butyrophenone hydrohydrochloride (I)] | 8 | 1.6 | 2.5 | 3.2
3 | CO[C@]1(c2ccc(C)cc2)CC[C@H](NCCCC(=O)c2ccc(F)cc2)CC1 [4'-fluoro-4-{[4-cis-methoxy-4-trans-(p-methylphenyl)cyclohexyl]amino}butyrophenone hydrochloride (I)] | 2.5 | 1.1 | 2 | 4.5
